Source: patent publication US7601713B2, “Kinase inhibitors and their uses” (Rigel Pharmaceuticals, Inc., priority 2005, dated 2009)
Read-outs that look alike come from different tables or passages of the source.

Columns and labels:
Axl kinase = target: T1, Axl kinase (Homo sapiens, UniProt P30530); assay: Phospho-Akt in-cell Western assay (Axl antibody cross-linking, Hela cells); type: cell-based; conditions: phospho-Akt readout, read-out: IC50, inhibition of Axl kinase
T1 construct: endogenous in cells; host or cells: HeLa cells
T1 sequence (P30530 26-894): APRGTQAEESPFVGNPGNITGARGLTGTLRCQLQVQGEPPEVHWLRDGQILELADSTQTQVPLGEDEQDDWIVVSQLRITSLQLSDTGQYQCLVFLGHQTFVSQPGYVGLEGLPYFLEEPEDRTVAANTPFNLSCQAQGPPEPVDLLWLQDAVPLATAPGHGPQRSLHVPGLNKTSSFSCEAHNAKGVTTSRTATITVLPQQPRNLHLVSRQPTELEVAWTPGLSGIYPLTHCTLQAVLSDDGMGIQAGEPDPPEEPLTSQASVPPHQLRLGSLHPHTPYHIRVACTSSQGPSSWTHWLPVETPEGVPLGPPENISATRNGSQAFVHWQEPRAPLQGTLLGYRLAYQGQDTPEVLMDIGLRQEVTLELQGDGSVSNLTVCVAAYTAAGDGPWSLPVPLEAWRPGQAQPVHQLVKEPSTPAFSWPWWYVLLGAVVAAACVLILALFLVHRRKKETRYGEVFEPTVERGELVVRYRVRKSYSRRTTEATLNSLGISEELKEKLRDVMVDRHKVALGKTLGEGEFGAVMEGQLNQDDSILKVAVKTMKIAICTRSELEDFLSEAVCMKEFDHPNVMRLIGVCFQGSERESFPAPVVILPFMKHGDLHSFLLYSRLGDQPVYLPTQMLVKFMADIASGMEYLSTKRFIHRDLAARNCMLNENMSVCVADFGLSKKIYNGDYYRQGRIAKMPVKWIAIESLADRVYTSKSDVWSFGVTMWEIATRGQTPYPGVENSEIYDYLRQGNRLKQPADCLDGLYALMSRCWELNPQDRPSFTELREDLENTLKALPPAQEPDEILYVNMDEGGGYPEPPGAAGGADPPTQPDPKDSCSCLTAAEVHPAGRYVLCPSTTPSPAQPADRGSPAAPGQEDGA
How it was run: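 HeLa cells were starved 24 h in 0.5% FCS with 500 ng/mL Axl/Fc, pretreated with compound 1 h at 37 °C, then stimulated 5 min by cross-linked anti-Axl antibodies. Phospho-Akt was detected by in-cell chemiluminescent immunoassay and normalized to crystal violet cell number at 590 nm.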

Syk kinase = Syk kinase (Homo sapiens, UniProt P43405); assay: cell-based Syk assay; conditions: read-out: IC50, inhibition of Syk kinase
PRK1 kinase = PRK1 kinase (Homo sapiens, UniProt Q16512); assay: PRK1 kinase inhibition; type: biochemical
PRK1 kinase, sequence (Q16512 whole entry): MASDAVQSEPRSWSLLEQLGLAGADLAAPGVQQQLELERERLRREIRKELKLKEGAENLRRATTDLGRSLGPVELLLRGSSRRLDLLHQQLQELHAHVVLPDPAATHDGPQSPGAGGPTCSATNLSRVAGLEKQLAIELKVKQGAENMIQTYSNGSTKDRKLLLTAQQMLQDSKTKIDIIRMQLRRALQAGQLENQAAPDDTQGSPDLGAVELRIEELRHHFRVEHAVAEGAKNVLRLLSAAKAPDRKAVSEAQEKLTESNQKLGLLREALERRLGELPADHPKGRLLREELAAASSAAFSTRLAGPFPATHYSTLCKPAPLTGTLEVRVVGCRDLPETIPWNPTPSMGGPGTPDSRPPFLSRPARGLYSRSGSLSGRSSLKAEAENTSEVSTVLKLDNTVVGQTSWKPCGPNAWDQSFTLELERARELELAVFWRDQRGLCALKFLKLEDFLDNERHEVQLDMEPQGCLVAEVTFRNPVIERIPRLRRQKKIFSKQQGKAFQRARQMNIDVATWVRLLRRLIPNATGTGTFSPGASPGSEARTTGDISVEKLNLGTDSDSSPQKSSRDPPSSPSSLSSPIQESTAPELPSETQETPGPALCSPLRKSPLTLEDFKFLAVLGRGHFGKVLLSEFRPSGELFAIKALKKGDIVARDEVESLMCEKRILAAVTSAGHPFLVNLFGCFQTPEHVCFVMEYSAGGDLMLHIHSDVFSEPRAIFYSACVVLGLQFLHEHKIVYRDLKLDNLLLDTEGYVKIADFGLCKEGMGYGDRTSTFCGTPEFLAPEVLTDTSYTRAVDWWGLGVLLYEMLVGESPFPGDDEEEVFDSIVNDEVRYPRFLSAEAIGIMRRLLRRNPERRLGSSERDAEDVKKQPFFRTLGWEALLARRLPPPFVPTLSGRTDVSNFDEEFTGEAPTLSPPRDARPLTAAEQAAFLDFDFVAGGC

tumor cell lines = conditions: cited from earlier work; for antiproliferative activity against tumor cell types: in vitro assays, variety of tumor cell lines
Aurora kinases = conditions: cited from earlier work
Aurora kinase B = Aurora kinase B (Homo sapiens, UniProt Q96GD4); conditions: compared to the (1S,2S,3R,4R) diastereomers; cited from earlier work
Aurora kinase B, sequence (Q96GD4 whole entry, species assumed): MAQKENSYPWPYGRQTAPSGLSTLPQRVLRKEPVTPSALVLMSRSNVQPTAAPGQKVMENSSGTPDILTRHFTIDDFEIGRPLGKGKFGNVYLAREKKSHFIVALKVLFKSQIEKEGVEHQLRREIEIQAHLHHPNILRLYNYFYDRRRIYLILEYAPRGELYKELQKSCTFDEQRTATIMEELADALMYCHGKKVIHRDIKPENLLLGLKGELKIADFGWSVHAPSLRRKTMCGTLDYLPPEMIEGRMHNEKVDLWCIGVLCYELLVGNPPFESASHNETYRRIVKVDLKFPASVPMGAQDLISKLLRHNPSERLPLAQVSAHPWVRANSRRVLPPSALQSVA

Row | IC50 (Axl kinase) [µM] | IC50 (PRK1 kinase) [µM] | Compound | antiproliferative activity against tumor cell types (tumor cell lines) | inhibition of Aurora kinases (Aurora kinases) | further results
1 | < 5 | < 5 | NC(=O)C1C2C=CC(C2)C1Nc1nc(Nc2cccc(CN3CCOCC3)c2)nc2[nH]ccc12 (racemic) [Compound 221, Racemic-(2-exo,3-exo)-N4-(3-aminocarbonylbicyclo [2.2.1]hept-5-en-2-yl)-N2-(3-morpholin-4-yl-methylphenyl)-1H-pyrrolo[2,3-d]pyrimidine-2,4-diamine] | – | – | IC50 (Syk kinase): < 5 µM
2 | > 10 | < 5 | N#Cc1ccc(-c2ccc(Nc3nc(NC4C5C=CC(C5)C4C(N)=O)c4cc[nH]c4n3)cc2)cc1 (racemic) [Compound 220, Racemic-(2-exo,3-exo)-N4-(3-aminocarbonylbicyclo [2.2.1]hept-5-en-2-yl)-N2-[(4′-cyano[1,1′-biphenyl]-4-yl)]-1H-pyrrolo[2,3-d]pyrimidine-2,4-diamine] | – | – | –
3 | – | – | Cc1cc(Nc2ncc(F)c(NC3CCCC3C(N)=O)n2)ccc1N1CCN(C)CC1 [cis (1R,2S), N4-(2-aminocarbonylcyclopent-1-yl)-5-fluoro-N2-[4-(4-methylpiperazin-1-yl)-3-methylphenyl]-2,4-pyrimidinediamine] | inhibit the proliferation | inhibited Aurora kinases | antiproliferative activity against tumor cell types (tumor cell lines; listed as (1R,2S)): exhibited antiproliferative activity
4 | – | – | Cc1cc(Nc2ncc(F)c(NC3CCCC3C(N)=O)n2)ccc1N1CCN(C)CC1 [cis (1S,2R), N4-(2-aminocarbonylcyclopent-1-yl)-5-fluoro-N2-[4-(4-methylpiperazin-1-yl)-3-methylphenyl]-2,4-pyrimidinediamine] | inhibit the proliferation | inhibited Aurora kinases | antiproliferative activity against tumor cell types (tumor cell lines; listed as cis(1S,2R)): exhibited antiproliferative activity
5 | – | – | Cc1cc(Nc2ncc(F)c(NC3C4C=CC(C4)C3C(N)=O)n2)ccc1N1CCN(C)CC1 [(1R,2R,3S,4S) diastereomer, N4-(3-aminocarbonylbicyclo [2.2.1]hept-5-en-2-yl)-5-fluoro-N2-[3-methyl-4-(4-methylpiperazin-1-yl)phenyl]-2,4-pyrimidinediamine] | – | – | potency of (1R,2R,3S,4S) diastereomer relative to (1S,2S,3R,4R) diastereomer (tumor cell lines): approximately 1000 fold; IC50s against tumor cell lines (tumor cell lines; isolated stereoisomers): nanomolar range; inhibition of Aurora kinase B in cells (Aurora kinase B): similarly superior results
6 | – | – | Cc1cc(Nc2ncc(F)c(NC3CCCC3C(N)=O)n2)ccc1N1CCN(C)CC1 [trans (1R,2R) diastereomer, N4-(2-aminocarbonylcyclopent-1-yl)-5-fluoro-N2-[4-(4-methylpiperazin-1-yl)-3-methylphenyl]-2,4-pyrimidinediamine] | inhibit the proliferation | inhibited Aurora kinases | antiproliferative activity against tumor cell types (tumor cell lines; listed as trans(1R,2R)): exhibited antiproliferative activity
